Structures are written as SMILES.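 Assay format: 96-well plates, 48-hour exposure. GI50: concentration for 50% inhibition of growth. The concentration for full growth arrest is given as TGI.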

Some test systems named below: OVCAR-5 ovarian; OVCAR-8 ovarian; LOX IMVI melanoma; EKVX NSCLC; MDA-MB-435; CCRF-CEM leukemia; PC-3 prostate; SK-MEL-28 melanoma; M14 melanoma; MDA-MB-231 breast.
Holding throughout (test): NCI tumour cell line growth inhibition, 48 h

For `COc1cc2ncnc(-n3ncc4cc(NC(=O)Nc5ccc(Cl)c(Cl)c5)ccc43)c2cc1OC`, the GI50 with OVCAR-5 ovarian was 1.83 µM; in the test with OVCAR-8 ovarian, 2.77 µM; with LOX IMVI melanoma, 1.97 µM; with EKVX NSCLC, 3.06 µM; with MDA-MB-435, 1.84 µM; in the test with CCRF-CEM leukemia, 4.01 µM. The GI50 is 1.55 µM in the test on PC-3 prostate, 1.57 µM in the test on SK-MEL-28 melanoma, 1.65 µM in the test with M14 melanoma and 1.96 µM in the test with MDA-MB-231 breast. Besides, the TGI in the test with OVCAR-5 ovarian stood at 4.31 µM; with OVCAR-8 ovarian it was 7.07 µM; in the test on LOX IMVI melanoma it was 3.76 µM; in the test on EKVX NSCLC, 9.84 µM; in the test with MDA-MB-435 it was 4.29 µM; in the test on CCRF-CEM leukemia, 42.3 µM. Also, the TGI was determined as 3.24 µM in the test on PC-3 prostate, 3.24 µM in the test with SK-MEL-28 melanoma, 3.58 µM in the test with M14 melanoma and 4.03 µM with MDA-MB-231 breast.

Consider `c1cc(-c2nnc(SSc3ncnc4nc[nH]c34)o2)ccn1`, for which the GI50 with OVCAR-5 ovarian is 3.1 µM; with OVCAR-8 ovarian, 3.26 µM; in the test on LOX IMVI melanoma, 0.297 µM; with EKVX NSCLC it was 24.4 µM; in the test on MDA-MB-435, 0.497 µM; with CCRF-CEM leukemia, 1.24 µM. The GI50 in the test with PC-3 prostate was 3.48 µM; in the test with SK-MEL-28 melanoma, 43.7 µM; with M14 melanoma, 0.405 µM; with MDA-MB-231 breast it was 4.45 µM. Besides, the TGI in the test with OVCAR-5 ovarian was over 100 µM; in the test on OVCAR-8 ovarian, over 100 µM; with LOX IMVI melanoma it was 17.3 µM; in the test with EKVX NSCLC it was over 100 µM; with MDA-MB-435, over 100 µM; with CCRF-CEM leukemia it was over 100 µM. Besides, the TGI in the test on PC-3 prostate, with SK-MEL-28 melanoma, with M14 melanoma and in the test with MDA-MB-231 breast was over 100 µM throughout.

Consider `CCn1c(-c2cc3c([nH]c4ccccc43)c(-c3cccc(O)c3)n2)n[nH]c1=S`, for which the GI50 was 6.34 µM with OVCAR-5 ovarian; 3.96 µM in the test on OVCAR-8 ovarian; 2.93 µM in the test on LOX IMVI melanoma; 3.45 µM in the test on EKVX NSCLC; 0.0496 µM in the test with MDA-MB-435; 2.93 µM with CCRF-CEM leukemia. Besides, the GI50 is 2.77 µM in the test on PC-3 prostate, 2.63 µM in the test with SK-MEL-28 melanoma, 2.57 µM in the test with M14 melanoma and 2.79 µM in the test on MDA-MB-231 breast. Also, the TGI in the test on OVCAR-5 ovarian came to 32.9 µM; in the test on OVCAR-8 ovarian it was 31 µM; in the test with LOX IMVI melanoma, 12.7 µM; in the test with EKVX NSCLC, 14.5 µM; with MDA-MB-435, 2.94 µM; with CCRF-CEM leukemia it was 12.4 µM. Further, the TGI came out at 13.3 µM in the test with PC-3 prostate, 12.3 µM in the test on SK-MEL-28 melanoma, 11.6 µM in the test on M14 melanoma and 15.6 µM with MDA-MB-231 breast.

Regarding `NS(=O)(=O)c1ccc(N=Nc2c(O)[nH]c3ccc(C(=O)NCc4ccncc4)cc23)cc1`, the GI50 in the test with OVCAR-5 ovarian, in the test with OVCAR-8 ovarian, in the test on LOX IMVI melanoma, with EKVX NSCLC, in the test with MDA-MB-435 and in the test on CCRF-CEM leukemia was over 25 µM in each case. For the same compound, the GI50 in the test on PC-3 prostate, in the test on SK-MEL-28 melanoma, in the test with M14 melanoma and in the test on MDA-MB-231 breast was over 25 µM each time. Further, the TGI with OVCAR-5 ovarian, in the test on OVCAR-8 ovarian, in the test on LOX IMVI melanoma, with EKVX NSCLC, in the test on MDA-MB-435 and in the test with CCRF-CEM leukemia was over 25 µM each time. The TGI in the test with PC-3 prostate, in the test with SK-MEL-28 melanoma, with M14 melanoma and in the test on MDA-MB-231 breast was over 25 µM each time.

As for `CN(C)CCNC(=O)c1ccc(-c2nc3ccc4[nH]ncc4c3c3c2C2CCC3C2)cc1` (stereo not given), the GI50 with OVCAR-5 ovarian was 3.01 µM; in the test on OVCAR-8 ovarian it was 1.4 µM; with LOX IMVI melanoma it was 1.19 µM; in the test with EKVX NSCLC, 1.72 µM; with MDA-MB-435, 1.28 µM; in the test with CCRF-CEM leukemia it was 1.01 µM. Besides, the GI50 is 1.24 µM with PC-3 prostate, 1.84 µM with SK-MEL-28 melanoma, 0.809 µM in the test on M14 melanoma and 1.64 µM in the test on MDA-MB-231 breast. Moreover, the TGI with OVCAR-5 ovarian was found to be 9.85 µM; in the test with OVCAR-8 ovarian, 9.81 µM; in the test on LOX IMVI melanoma, 2.79 µM; in the test with EKVX NSCLC, 6.91 µM; with MDA-MB-435, 4.45 µM; in the test with CCRF-CEM leukemia, 10.1 µM. Besides, the TGI in the test on PC-3 prostate was determined as 7.22 µM; with SK-MEL-28 melanoma it was 5.64 µM; in the test with M14 melanoma it was 2.75 µM; in the test with MDA-MB-231 breast, 4.11 µM.

On to `Oc1c(Cl)cc(Cl)c2ccc(Cn3cc(-c4cc(C(F)(F)F)cc(C(F)(F)F)c4)nn3)nc12`, for which the GI50 in the test on OVCAR-5 ovarian was 2.9 µM; in the test on OVCAR-8 ovarian, 2.79 µM; in the test with LOX IMVI melanoma, 0.317 µM; in the test with EKVX NSCLC it was 7.65 µM; in the test on MDA-MB-435, 1.82 µM; in the test on CCRF-CEM leukemia it was 0.305 µM. Besides, the GI50 with PC-3 prostate is 2.81 µM; in the test with SK-MEL-28 melanoma it was 1.7 µM; in the test with M14 melanoma it was 1.61 µM; with MDA-MB-231 breast, 2 µM. In addition, the TGI worked out at 9.23 µM with OVCAR-5 ovarian; 9.94 µM in the test on OVCAR-8 ovarian; 1.28 µM in the test on LOX IMVI melanoma; 21 µM in the test on EKVX NSCLC; 4.18 µM with MDA-MB-435; 5.49 µM in the test on CCRF-CEM leukemia. Moreover, the TGI in the test on PC-3 prostate came to 10.3 µM; in the test on SK-MEL-28 melanoma, 3.48 µM; in the test on M14 melanoma it was 3.45 µM; in the test with MDA-MB-231 breast it was 4.95 µM.

In the case of `C=C/C(C)=C/C[C@]1(C)[C@H](C)[C@@H](OC(=O)CCC)[C@H](O)[C@@]23C(=C[C@H](OC)C[C@@H]12)[C@@H](OC(=O)CCC)O[C@H]3OC(C)=O`, the GI50 in the test on OVCAR-5 ovarian was 0.576 µM; in the test on OVCAR-8 ovarian, 0.447 µM; with LOX IMVI melanoma, 1.22 µM; with EKVX NSCLC, 0.987 µM; in the test with MDA-MB-435, 0.298 µM; with CCRF-CEM leukemia, 0.382 µM. The GI50 with PC-3 prostate is 0.511 µM; in the test on SK-MEL-28 melanoma it was 0.431 µM; in the test on M14 melanoma, 0.881 µM; in the test on MDA-MB-231 breast, 0.857 µM. Besides, the TGI in the test with OVCAR-5 ovarian turned out to be 2.54 µM; in the test on OVCAR-8 ovarian, 2.42 µM; in the test with LOX IMVI melanoma, 2.56 µM; in the test on EKVX NSCLC, 2.61 µM; with MDA-MB-435, 0.95 µM; in the test on CCRF-CEM leukemia, 1.66 µM. In addition, the TGI in the test on PC-3 prostate amounted to 2.31 µM; in the test with SK-MEL-28 melanoma, 1.63 µM; with M14 melanoma, 2.55 µM; with MDA-MB-231 breast it was 2.45 µM.

The record behind these values is PubChem BioAssay (NCI).
